Data as given in patent US8802597B2, “Herbicidal pyrimidines” (E I du Pont de Nemours and Company, priority 2003, dated 2014).
Like-named read-outs stand apart in the source and are kept apart here.

Key:
Assay in all cases: Test C pre/postemergence
Type in all cases: in vivo
[1] = system: bermudagrass (Cynodon dactylon); conditions: Cynodon dactylon; for pest or weed control at 16 g/ha: 16 g ai/ha; for pest or weed control at 31 g/ha: 31 g ai/ha; for pest or weed control at 62 g/ha: 62 g ai/ha; for pest or weed control at 125 g/ha: 125 g ai/ha
Description: (§1) Seeds or nutlets of plant species selected from bermudagrass (Cynodon dactylon), Surinam grass (Brachiaria decumbens), cocklebur (Xanthium strumarium), corn (Zea mays), crabgrass (Digitaria sanguinalis), woolly cupgrass (Eriochloa villosa), giant foxtail (Setaria faberii), goosegrass (Eleusine indica), johnsongrass (Sorghum halepense), kochia (Kochia scoparia), lambsquarters (Chenopodium album), morningglory (Ipomoea coccinea), eastern black nightshade (Solanum ptycanthum), yellow nutsedge (Cyperus esculentus), pigweed (Amaranthus retroflexus), common ragweed (Ambrosia elatior), soybean (Glycine max), common (oilseed) sunflower (Helianthus annuus), and velvetleaf (Abutilon theophrasti) were planted and treated preemergence with test chemicals formulated in a non-phytotoxic solvent mixture which included a surfactant.
(§2) At the same time, plants selected from these crop and weed species and also winter barley (Hordeum vulgare), blackgrass (Alopecurus myosuroides), canarygrass (Phalaris minor), chickweed (Stellaria media), downy brome (Bromus tectorum), green foxtail (Setaria viridis), Italian ryegrass (Lolium multiflorum), wheat (Triticum aestivum), wild oat (Avena fatua) and windgrass (Apera spica-venti) were treated with postemergence applications of some of the test chemicals formulated in the same manner. Plants ranged in height from 2 to 18 cm (1- to 4-leaf stage) for postemergence treatments. Plant species in the flooded paddy test consisted of rice (Oryza sativa), umbrella sedge (Cyperus difformis), duck salad (Heteranthera limosa) and barnyardgrass (Echinochloa crus-galli) grown to the 2-leaf stage for testing. Treated plants and controls were maintained in a greenhouse for 12 to 14 days, after which time all species were compared to controls and visually evaluated. Plant response ratings, summarized in Table C, are based on a scale of 0 to 100 where 0 is no effect and 100 is complete control. A dash (-) response means no test result.

[2] = system: giant foxtail (Setaria faberii); conditions: Setaria faberi; for pest or weed control at 125 g/ha: 125 g ai/ha; for pest or weed control at 16 g/ha: 16 g ai/ha; for pest or weed control at 31 g/ha: 31 g ai/ha; for pest or weed control at 62 g/ha: 62 g ai/ha
Description: as §1, §2

[3] = system: johnsongrass (Sorghum halepense); conditions: Sorghum halepense; for pest or weed control at 16 g/ha: 16 g ai/ha; for pest or weed control at 31 g/ha: 31 g ai/ha; for pest or weed control at 62 g/ha: 62 g ai/ha; for pest or weed control at 125 g/ha: 125 g ai/ha
Description: as §1, §2

soybean (Glycine max) = conditions: Glycine max; for plant injury at 16 g/ha: 16 g ai/ha; for plant injury at 62 g/ha: 62 g ai/ha; for plant injury at 125 g/ha: 125 g ai/ha
Description: as §1, §2

[4] = post-emergence, Postemergence, read-out: Plant response rating (scale of 0 to 100), Bermudagrass
[5] = post-emergence, Postemergence, scale 0 to 100 (0 no effect, 100 complete control), read-out: Bermudagrass plant response rating
[6] = pre-emergence, Preemergence, scale 0 to 100, 0 no effect, 100 complete control, read-out: Plant response rating, Bermudagrass
[7] = post-emergence, Postemergence, scale 0 to 100 (0 no effect, 100 complete control), read-out: Foxtail, Giant plant response rating
[8] = post-emergence, Postemergence, read-out: Plant response rating (scale of 0 to 100), Foxtail, Giant
[9] = pre-emergence, Preemergence, scale 0 to 100, 0 no effect, 100 complete control, read-out: Plant response rating, Foxtail, Giant
[10] = post-emergence, Postemergence, read-out: Plant response rating (scale of 0 to 100), Johnsongrass
[11] = post-emergence, Postemergence, scale 0 to 100 (0 no effect, 100 complete control), read-out: Johnsongrass plant response rating
[12] = pre-emergence, Preemergence, scale 0 to 100, 0 no effect, 100 complete control, read-out: Plant response rating, Johnsongrass
[13] = post-emergence, Postemergence, scale 0 to 100 (0 no effect, 100 complete control), read-out: Soybean plant response rating
[14] = pre-emergence, Preemergence, scale 0 to 100, 0 no effect, 100 complete control, read-out: Plant response rating, Soybean

COC(=O)c1nc(C2CC2)nc(N)c1F [Compound 25]
90%: plant injury at 31 g/ha (soybean (Glycine max); post-emergence, Postemergence, 31 g ai/ha, read-out: Plant response rating (scale of 0 to 100), Soybean) | plant injury at 62 g/ha (soybean (Glycine max); [13]) | plant injury at 125 g/ha (soybean (Glycine max); [13])
20%: pest or weed control at 125 g/ha [3, 11]
10%: pest or weed control at 125 g/ha ([1]; pre-emergence, Preemergence, scale 0 to 100, read-out: Plant response rating, Bermudagrass) | pest or weed control at 31 g/ha [3, 10] | pest or weed control at 62 g/ha [3, 11]
5%: pest or weed control at 62 g/ha [2, 7]
30%: pest or weed control at 125 g/ha [2, 7] | plant injury at 16 g/ha (soybean (Glycine max); [14])
40%: plant injury at 16 g/ha (soybean (Glycine max); post-emergence, Postemergence, read-out: Plant response rating (scale of 0 to 100), Soybean)
0%: pest or weed control at 16 g/ha [1, 4] | pest or weed control at 31 g/ha [1, 4] | pest or weed control at 62 g/ha [1, 5] | pest or weed control at 125 g/ha [1, 5] | pest or weed control at 16 g/ha [1, 6] | pest or weed control at 31 g/ha [1, 6] | pest or weed control at 62 g/ha [1, 6] | pest or weed control at 16 g/ha [2, 8] | pest or weed control at 31 g/ha [2, 8] | pest or weed control at 16 g/ha [2, 9] | pest or weed control at 31 g/ha [2, 9] | pest or weed control at 62 g/ha [2, 9] | pest or weed control at 125 g/ha ([2]; pre-emergence, Preemergence, scale 0 to 100, read-out: Plant response rating, Foxtail, Giant) | pest or weed control at 16 g/ha [3, 10] | pest or weed control at 16 g/ha [3, 12] | pest or weed control at 31 g/ha [3, 12] | pest or weed control at 62 g/ha [3, 12] | pest or weed control at 125 g/ha ([3]; pre-emergence, Preemergence, scale 0 to 100, read-out: Plant response rating, Johnsongrass)
60%: plant injury at 62 g/ha (soybean (Glycine max); [14])
65%: plant injury at 125 g/ha (soybean (Glycine max); pre-emergence, Preemergence, scale 0 to 100, read-out: Plant response rating, Soybean)
